# Measurements: patent publication US7575882B2, “Compositions and methods for identifying modulators of TRPV2” (Janssen Pharmaceutica N. V., priority 2005, dated 2009)
# Values joined by “and” are separate entries in the source; they are usually repeats but may differ in a detail not shown here. Equal entries are not always repeated.
# Tests used:
# [1] = system: untransfected HEK293 cells; assay: Whole-cell patch clamp, untransfected HEK293 cells (control); type: cell-based; conditions: 100 μM; data not shown
# Experimental: To further confirm the Δ^9-THC effect on TRPV2, whole-cell patch clamp studies were performed. The extracellular solution contained (in mM): NaCl, 132; CaCl, 1.8; KCl, 5.4; MgCl2, 0.8; HEPES, 10; glucose, 10; pH=7.4. The intracellular solution used to fill recording pipettes contained (in mM): CsCl, 145; EGTA, 5; HEPES, 10; glucose, 5; pH=7.4. Recordings were performed using the conventional whole-cell patch clamp technique, 2-3 days after transient transfection of human TRPV2 into HEK293 cell or 1-2 days after plating HEK293 cells stably expressing rat TRPV2 onto glass coverslips. Currents were amplified by a patch clamp amplifier and filtered at 2 kHz (Axopatch 200B), sampled at 10 kHz using Digidata 1322A and acquired and analyzed with pClamp 9.0 (all instruments from Molecular Devices, CA). A 600 ms voltage ramp was given once every five seconds from −100 mV to +60 mV. The holding potential between voltage ramps was −100 mV. Extracellular solutions were applied to the cell at 0.5 ml/min via a gravity-fed perfusion system. All experiments were performed at 22° C.
# rat TRPV2 = biological target: T1, rat TRPV2 (Rattus norvegicus, UniProt Q9WUD2, A713V/L151P/T158I); assay: FLIPR calcium mobilization assay in rat TRPV2-expressing HEK293 cells; type: cell-based
# T1 construct: A cDNA fragment encoding the full-length rat TRPV2 was subcloned into pCI-neo; expressed in transfected cells
# T1 sequence (Q9WUD2 1-761 L151P/T158I/A713V): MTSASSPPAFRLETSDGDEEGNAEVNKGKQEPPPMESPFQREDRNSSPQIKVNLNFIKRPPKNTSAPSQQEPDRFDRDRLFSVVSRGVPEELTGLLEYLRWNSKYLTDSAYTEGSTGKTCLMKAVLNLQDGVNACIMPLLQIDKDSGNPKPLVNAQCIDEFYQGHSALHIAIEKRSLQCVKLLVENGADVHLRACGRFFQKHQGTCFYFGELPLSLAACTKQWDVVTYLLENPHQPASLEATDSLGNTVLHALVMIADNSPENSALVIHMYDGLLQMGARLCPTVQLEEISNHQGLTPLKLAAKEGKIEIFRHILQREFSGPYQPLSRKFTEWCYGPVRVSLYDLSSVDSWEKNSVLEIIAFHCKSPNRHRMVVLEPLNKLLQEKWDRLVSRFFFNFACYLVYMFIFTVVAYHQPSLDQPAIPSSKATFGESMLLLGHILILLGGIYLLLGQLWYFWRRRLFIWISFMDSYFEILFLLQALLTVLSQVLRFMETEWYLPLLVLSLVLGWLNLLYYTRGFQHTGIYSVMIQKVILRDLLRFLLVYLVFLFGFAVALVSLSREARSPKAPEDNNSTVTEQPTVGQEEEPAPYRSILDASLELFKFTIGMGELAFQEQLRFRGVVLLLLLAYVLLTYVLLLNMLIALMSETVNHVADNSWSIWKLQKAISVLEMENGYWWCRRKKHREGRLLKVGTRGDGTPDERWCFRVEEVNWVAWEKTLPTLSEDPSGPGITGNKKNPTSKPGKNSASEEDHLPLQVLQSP
# Experimental: A cDNA fragment encoding the full-length rat TRPV2 was subcloned into pCI-neo (Promega, Madison, Wis.) mammalian expression vector. The expression construct was then transfected into HEK293 cells with FuGene6 transfection reagent (Roche, Indianapolis, Ind.) according to the vendor's protocol. Stable cell lines were selected by growth in the presence of 400 μg/ml G418. Single G418 resistant clones were isolated and purified.
# The rat TRPV2-expressing HEK293 cells were seeded in a 384-well plate at a concentration of 5×10^3 cells/well and incubated overnight at 37° C. The following day, the cells were loaded with buffer and calcium dye 3 (Molecular Devices, Sunnyvale, Calif.) in a final volume of 50 μl and incubated for 30 minutes at 37° C./5% CO2 followed by 30 additional minutes at room temperature. The fluorescence intensity was measured by a fluorescent plate reader (FLIPR) before, during and after the addition of test compounds.
# All data was normalized to that observed for 100 μM Δ^9-THC.
substance,measurement,setting,value
Delta-9-tetrahydrocannabinol [Δ^9-THC],current above control level in untransfected HEK293 cells,[1],no current above control level
same,elevation of intracellular Ca2+ in rat TRPV2-expressing HEK293 cells,rat TRPV2; 100 μM,robust elevation of intracellular Ca^2+
same,% Response (activation of rat TRPV2),"rat TRPV2; 100 μM compound (anandamide 120 μM), normalized to 100 μM Δ^9-THC",100%
same,Hill slope of rat TRPV2 activation,"rat TRPV2; FLIPR concentration-response, FIG. 4B",1.04
same,EC50,"rat TRPV2; FLIPR, rat TRPV2-expressing HEK293 cells, read-out: EC50 (activation of rat TRPV2)",15.7 µM and 15.5 µM
